Test results taken from PubChem BioAssay (NCI).
“And” between values parts separate entries of the source, which are not always exact repeats. Equal values may be shown once.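 Cells were grown in 96-well plates and exposed to each compound for 48 hours at five concentrations; endpoints were interpolated linearly between bracketing concentrations, or set to the highest concentration if not reached. GI50 is the concentration that inhibits growth by half. TGI is the concentration that stops growth completely.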

Assays:
Assay in all cases: NCI anticancer screen, dose series, 48 h; in the data active = GI50 below about 0.43 µM; inactive = the rest
786-0 renal = tested on: 786-0 renal
A498 renal = tested on: A498 renal
A549 NSCLC = tested on: A549 NSCLC
ACHN renal = tested on: ACHN renal
BT-549 breast = tested on: BT-549 breast
CAKI-1 renal = tested on: CAKI-1 renal
CCRF-CEM leukemia = tested on: CCRF-CEM leukemia
COLO 205 colon = tested on: COLO 205 colon
DU-145 prostate = tested on: DU-145 prostate
EKVX NSCLC = tested on: EKVX NSCLC
HCT-116 colon = tested on: HCT-116 colon
HCT-15 colon = tested on: HCT-15 colon
HL-60(TB) leukemia = tested on: HL-60(TB) leukemia
HOP-62 NSCLC = tested on: HOP-62 NSCLC
HOP-92 NSCLC = tested on: HOP-92 NSCLC
HS 578T breast = tested on: HS 578T breast
HT29 colon = tested on: HT29 colon
IGROV1 ovarian = tested on: IGROV1 ovarian
K-562 leukemia = tested on: K-562 leukemia
KM12 colon = tested on: KM12 colon
LOX IMVI melanoma = tested on: LOX IMVI melanoma
M14 melanoma = tested on: M14 melanoma
MALME-3M melanoma = tested on: MALME-3M melanoma
MCF7 breast = tested on: MCF7 breast
MDA-MB-231 breast = tested on: MDA-MB-231 breast
MDA-MB-435 = tested on: MDA-MB-435
MDA-N = tested on: MDA-N
MOLT-4 leukemia = tested on: MOLT-4 leukemia
NCI-H226 lung = tested on: NCI-H226 lung
NCI-H23 lung = tested on: NCI-H23 lung
NCI-H460 lung = tested on: NCI-H460 lung
NCI-H522 lung = tested on: NCI-H522 lung
NCI/ADR-RES ovarian = tested on: NCI/ADR-RES ovarian
OVCAR-3 ovarian = tested on: OVCAR-3 ovarian
OVCAR-4 ovarian = tested on: OVCAR-4 ovarian
OVCAR-5 ovarian = tested on: OVCAR-5 ovarian
OVCAR-8 ovarian = tested on: OVCAR-8 ovarian
PC-3 prostate = tested on: PC-3 prostate
RPMI-8226 leukemia = tested on: RPMI-8226 leukemia
RXF 393 renal = tested on: RXF 393 renal
SF-268 CNS = tested on: SF-268 CNS
SF-295 CNS = tested on: SF-295 CNS
SF-539 CNS = tested on: SF-539 CNS
SK-MEL-2 melanoma = tested on: SK-MEL-2 melanoma
SK-MEL-28 melanoma = tested on: SK-MEL-28 melanoma
SK-MEL-5 melanoma = tested on: SK-MEL-5 melanoma
SK-OV-3 ovarian = tested on: SK-OV-3 ovarian
SN12C renal = tested on: SN12C renal
SNB-19 CNS = tested on: SNB-19 CNS
SNB-75 CNS = tested on: SNB-75 CNS
SR leukemia = tested on: SR leukemia
SW-620 colon = tested on: SW-620 colon
T-47D breast = tested on: T-47D breast
TK-10 renal = tested on: TK-10 renal
U251 CNS = tested on: U251 CNS
UACC-62 melanoma = tested on: UACC-62 melanoma
UO-31 renal = tested on: UO-31 renal
HCC-2998 colon = tested on: HCC-2998 colon
UACC-257 melanoma = tested on: UACC-257 melanoma

[O-][N+]1(CC[N+]2([O-])CCCCC2)CCCCC1
> 100 µM: TGI (786-0 renal) | TGI (A498 renal) | TGI (A549 NSCLC) | TGI (ACHN renal) | TGI (BT-549 breast) | TGI (CAKI-1 renal) | TGI (CCRF-CEM leukemia) | TGI (COLO 205 colon) | TGI (DU-145 prostate) | TGI (EKVX NSCLC) | TGI (HCT-116 colon) | TGI (HCT-15 colon) | TGI (HL-60(TB) leukemia) | TGI (HOP-62 NSCLC) | TGI (HOP-92 NSCLC) | TGI (HS 578T breast) | TGI (HT29 colon) | TGI (IGROV1 ovarian) | TGI (K-562 leukemia) | TGI (KM12 colon) | TGI (LOX IMVI melanoma) | TGI (M14 melanoma) | TGI (MALME-3M melanoma) | TGI (MCF7 breast) | TGI (MDA-MB-231 breast) | TGI (MDA-MB-435) | TGI (MDA-N) | TGI (MOLT-4 leukemia) | TGI (NCI-H226 lung) | TGI (NCI-H23 lung) | TGI (NCI-H460 lung) | TGI (NCI-H522 lung) | TGI (NCI/ADR-RES ovarian) | TGI (OVCAR-3 ovarian) | TGI (OVCAR-4 ovarian) | TGI (OVCAR-5 ovarian) | TGI (OVCAR-8 ovarian) | TGI (PC-3 prostate) | TGI (RPMI-8226 leukemia) | TGI (RXF 393 renal) | TGI (SF-268 CNS) | TGI (SF-295 CNS) | TGI (SF-539 CNS) | TGI (SK-MEL-2 melanoma) | TGI (SK-MEL-28 melanoma) | TGI (SK-MEL-5 melanoma) | TGI (SK-OV-3 ovarian) | TGI (SN12C renal) | TGI (SNB-19 CNS) | TGI (SNB-75 CNS) | TGI (SR leukemia) | TGI (SW-620 colon) | TGI (T-47D breast) | TGI (TK-10 renal) | TGI (U251 CNS) | TGI (UACC-62 melanoma) | TGI (UO-31 renal)

COCC1OC(S(=O)(=O)c2ccccc2)C(O)C(OC)C1OC (stereo not given)
> 100 µM: TGI (786-0 renal) | TGI (A549 NSCLC) | TGI (ACHN renal) | TGI (BT-549 breast) | TGI (CAKI-1 renal) | TGI (CCRF-CEM leukemia) | TGI (COLO 205 colon) | TGI (DU-145 prostate) | TGI (EKVX NSCLC) | TGI (HCC-2998 colon) | TGI (HCT-116 colon) | TGI (HCT-15 colon) | TGI (HL-60(TB) leukemia) | TGI (HOP-62 NSCLC) | TGI (HS 578T breast) | TGI (HT29 colon) | TGI (IGROV1 ovarian) | TGI (K-562 leukemia) | TGI (KM12 colon) | TGI (LOX IMVI melanoma) | TGI (M14 melanoma) | TGI (MALME-3M melanoma) | TGI (MCF7 breast) | TGI (MDA-MB-231 breast) | TGI (MDA-MB-435) | TGI (MDA-N) | TGI (MOLT-4 leukemia) | TGI (NCI-H226 lung) | TGI (NCI-H23 lung) | TGI (NCI-H460 lung) | TGI (NCI-H522 lung) | TGI (NCI/ADR-RES ovarian) | TGI (OVCAR-3 ovarian) | TGI (OVCAR-4 ovarian) | TGI (OVCAR-5 ovarian) | TGI (OVCAR-8 ovarian) | TGI (PC-3 prostate) | TGI (RXF 393 renal) | TGI (SF-268 CNS) | TGI (SF-295 CNS) | TGI (SF-539 CNS) | TGI (SK-MEL-2 melanoma) | TGI (SK-MEL-28 melanoma) | TGI (SK-MEL-5 melanoma) | TGI (SK-OV-3 ovarian) | TGI (SN12C renal) | TGI (SNB-19 CNS) | TGI (SNB-75 CNS) | TGI (SR leukemia) | TGI (SW-620 colon) | TGI (T-47D breast) | TGI (TK-10 renal) | TGI (U251 CNS) | TGI (UACC-257 melanoma) | TGI (UACC-62 melanoma) | TGI (UO-31 renal)
inactive: GI50 (SNB-75 CNS) > 100 µM and 12.1 µM

C[Si](C)(c1ccc(C(=O)O)cc1)c1ccc(C(=O)O)cc1
> 100 µM: TGI (786-0 renal) | TGI (A498 renal) | TGI (A549 NSCLC) | TGI (ACHN renal) | TGI (BT-549 breast) | TGI (CAKI-1 renal) | TGI (CCRF-CEM leukemia) | TGI (COLO 205 colon) | TGI (DU-145 prostate) | TGI (EKVX NSCLC) | TGI (HCT-116 colon) | TGI (HCT-15 colon) | TGI (HOP-62 NSCLC) | TGI (HOP-92 NSCLC) | TGI (HS 578T breast) | TGI (HT29 colon) | TGI (IGROV1 ovarian) | TGI (K-562 leukemia) | TGI (KM12 colon) | TGI (LOX IMVI melanoma) | TGI (M14 melanoma) | TGI (MALME-3M melanoma) | TGI (MCF7 breast) | TGI (MDA-MB-231 breast) | TGI (MDA-MB-435) | TGI (MDA-N) | TGI (MOLT-4 leukemia) | TGI (NCI-H226 lung) | TGI (NCI-H23 lung) | TGI (NCI-H460 lung) | TGI (NCI-H522 lung) | TGI (NCI/ADR-RES ovarian) | TGI (OVCAR-3 ovarian) | TGI (OVCAR-4 ovarian) | TGI (OVCAR-5 ovarian) | TGI (OVCAR-8 ovarian) | TGI (PC-3 prostate) | TGI (RPMI-8226 leukemia) | TGI (RXF 393 renal) | TGI (SF-268 CNS) | TGI (SF-295 CNS) | TGI (SF-539 CNS) | TGI (SK-MEL-2 melanoma) | TGI (SK-MEL-28 melanoma) | TGI (SK-MEL-5 melanoma) | TGI (SK-OV-3 ovarian) | TGI (SN12C renal) | TGI (SNB-19 CNS) | TGI (SNB-75 CNS) | TGI (SR leukemia) | TGI (SW-620 colon) | TGI (T-47D breast) | TGI (TK-10 renal) | TGI (U251 CNS) | TGI (UACC-257 melanoma) | TGI (UACC-62 melanoma)
